This is an account of results in paper doi:10.1101/2022.08.24.505199v2 (biorxiv, 2025).

For test [1], the target named is NKA α1 purified from pig kidney (outer medulla) (Sus scrofa, UniProt P05024). Description: SPR. It counts as binding.
The next test deals with Mouse NKA α3β1 (Mus musculus, UniProt Q6PIC6). In words: NKA ATPase activity inhibition, dose response. It is filed as biochemical.

A word on the Kd: it is a measure of binding affinity in units of concentration. As a reminder, the IC50 is the concentration needed to halve the response being measured. The low end stands for greater potency in that assay, the high end for weaker potency in that assay. Take `C=Cc1cccc2c1N(C)Cc1cc3c(cc1-2)OCO3` [HLY72]: the Kd in test [1] was found to be 4.2 µM. Further, the IC50 at Mouse NKA α3β1 is 18.6 µM.
